Reference: patent publication US20200131156A1, “ARYLSULFONYLPYROLECARBOXAMIDE DERIVATIVES AS Kv3 POTASSIUM CHANNEL ACTIVATORS” (H. Lundbeck A/S, priority 2018, published 2020)

Experiments:
[1] = molecular target: T1, hKv3.1b (Homo sapiens, UniProt P48547); assay: Automated patch clamp (QPatch-16x) on HEK-293 cells stably expressing hKv3.1b; format: cell-based; conditions: for hKv3.1 (Qpatch) ECΔ30% increase: concentration increasing current by 30% at the −10 mV step; for hKv3.1 (Qpatch) ECΔ30% increase / hKv3.1 (Qpatch) ECΔ5 mV: automated patch clamp; for ECdelta5 mV: concentration needed to shift the activation threshold 5 mV; for hKv3.1 (Qpatch) ECΔ5 mV: concentration that shifts activation threshold by 5 mV in hyperpolarized direction; for Threshold Shift: maximum absolute hyperpolarizing shift of activation threshold at tested concentrations 0.37-30 μM
T1 construct: expressed in transfected cells
T1 sequence (P48547 1-585 isoform P48547-2): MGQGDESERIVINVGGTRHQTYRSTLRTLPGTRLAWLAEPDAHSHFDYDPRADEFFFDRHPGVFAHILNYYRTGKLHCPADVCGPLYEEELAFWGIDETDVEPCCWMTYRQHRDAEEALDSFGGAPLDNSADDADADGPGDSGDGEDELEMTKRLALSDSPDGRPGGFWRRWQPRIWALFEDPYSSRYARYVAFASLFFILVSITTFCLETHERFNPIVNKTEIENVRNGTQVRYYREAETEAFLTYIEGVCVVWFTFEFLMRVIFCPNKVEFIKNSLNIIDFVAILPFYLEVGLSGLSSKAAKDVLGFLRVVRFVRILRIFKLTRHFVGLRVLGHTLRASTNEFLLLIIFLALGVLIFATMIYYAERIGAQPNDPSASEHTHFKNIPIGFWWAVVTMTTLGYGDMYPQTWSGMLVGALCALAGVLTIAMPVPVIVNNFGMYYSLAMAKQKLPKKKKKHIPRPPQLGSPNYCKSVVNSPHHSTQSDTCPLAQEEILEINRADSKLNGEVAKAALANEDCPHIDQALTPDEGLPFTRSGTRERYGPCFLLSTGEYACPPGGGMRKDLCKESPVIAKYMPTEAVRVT
How it was run: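 Whole-cell automated patch clamp, extracellular pH 7.4, 4 mM Na2ATP intracellular; holding −80 mV, 200 ms steps −70 to +10 mV. Five ascending concentrations (0.37–30 μM) per cell, ~3 min each, 0.33% DMSO vehicle. Activation threshold (5% of vehicle peak at 10 mV) shift fitted sigmoidally; ECdelta5 mV read from curve.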

[2] = Unbound fraction in brain; format: in vitro ADME, rat

Cc1cnc(CNC(=O)c2ccn(S(=O)(=O)c3ccc(F)cc3C)c2)cn1 [Compound 90, 1-(4-fluoro-2-methylbenzene-1-sulfonyl)-N-[(5-methylpyrazin-2-yl)methyl]-1H-pyrrole-3-carboxamide]
hKv3.1 (Qpatch) ECΔ30% increase [1]: 1.6 µM
ECdelta5 mV [1]: 1300 nM
hKv3.1 (Qpatch) ECΔ5 mV [1]: 1.2 µM
Threshold Shift [1]: 32 mV
fraction unbound ([2]; rat PK table footnote): 0.08

Cc1ccc(S(=O)(=O)n2ccc(C(=O)NCc3ncco3)c2)cc1 [Compound 86, 1-(4-methylbenzene-1-sulfonyl)-N-[(1,3-oxazol-2-yl)methyl]-1H-pyrrole-3-carboxamide]
hKv3.1 (Qpatch) ECΔ30% increase [1]: 2.9 µM
ECdelta5 mV [1]: 2800 nM
hKv3.1 (Qpatch) ECΔ5 mV [1]: 2.7 µM
Threshold Shift [1]: 17 mV
fraction unbound ([2]; rat table footnote): 0.12
